{
  "source": "patent US20220107328A1",
  "about": "“METHODS OF TREATING LIVER DISEASES” (Camp4 Therapeutics Corporation, priority 2018, published 2022)",
  "molecules": {"B1": {"name": "GDF2 (protein, UniProt Q9UK05 320-429, looked up)", "Growth/differentiation factor …": "SAGAGSHCQKTSLRVNFEDIGWDSWIIAPKEYEAYECKGGCFFPLADDVTPTKHAIVQTLVHLKFPTKVGKACCVPTKLSPISVLYKDDMGVPTLKYHYEGMSVAECGCR"}},
  "key": {"[1]": {"system": "PNPLA3 expression", "assay": "RNA-seq of compound-treated primary human hepatocytes", "format": "cell-based", "protocol": "Cryopreserved hepatocytes were cultured in plating media for 16 hours, transferred to maintenance media for 4 hours. Cultured on serum-free media for 2 hours, then a compound was added. The hepatocytes were maintained on the serum-free media for 16 hours prior to gene expression analysis.\nHuman hepatocytes cultured as described above were plated in 24-well format, adding 375,000 cells per well in a volume of 500 μl plating medium. Four hours before treatment, cells were washed with PBS and the medium was changed to either: fresh maintenance medium (complete) or modified maintenance medium.\nCompound stocks were prepared at 1000× final concentration and added in a 2-step dilution to the medium to reduce risk of a compound precipitating out of solution when added to the cells, and to ensure reasonable pipetting volumes. One at a time, each compound was first diluted 10-fold in warm (about 37° C.) modified maintenance medium (initial dilution=ID), mixed by vortexing, and the ID was diluted 100-fold into the cell culture (e.g. 5.1 μl into 1 well of a 24-well plate containing 0.5 mL medium). The plate was mixed by carefully swirling and after all wells were treated and returned to the incubator overnight. If desired, separate plates/wells were treated with vehicle-only controls and/or positive controls. If using multi-well plates, controls were included on each plate. After about 18 hours, cells were harvested for further analysis, e.g., ChIP-seq, RNA-seq, ATAC-seq, etc.\nThe expression level of each gene was quantified with normalized FPKM (fragments per kilobase of exon per million mapped fragments). The differentially expressed genes were called using Cuffdiff v2.2.1 with q value<0.01 and log2 fold change>=1 or <=−1.\n(§3) To identify small molecules that modulate PNPLA3, primary human hepatocytes were prepared as a monoculture, and at least one small molecule compound was applied to the cells.\n(§4) RNA-seq was performed to determine the effects of the compounds on PNPLA3 expression in hepatocytes. Fold change was calculated by dividing the level of expression in the cell system that had been perturbed by the level of expression in an unperturbed system. Changes in expression having a p-value≤0.05 were considered significant."}, "[2]": {"system": "PNPLA5 expression", "assay": "RNA-seq of compound-treated primary human hepatocytes, PNPLA5", "format": "cell-based", "protocol": "as §3, §4"}, "[3]": {"system": "PNPLA3 mRNA", "assay": "qRT-PCR of PNPLA3 mRNA in compound-treated primary human hepatocytes", "settings": "for Primary Hepatocytes 4178 PNPLA3 (fold change in mRNA expression): donor 4178, 3 μM; for Primary Hepatocytes 4178 PNPLA3 (fold change in mRNA expression) / Primary Hepatocytes 4282 PNPLA3 (fold change in mRNA expression): relative to GUSB; for Primary Hepatocytes 4282 PNPLA3 (fold change in mRNA expression): donor 4282, 3 μM; for PNPLA3 mRNA expression level over time (in words): 35 min to 20 hrs; for Relative PINPLA3 mRNA: hepatocytes"}, "[4]": {"system": "PCSK9 mRNA", "assay": "qRT-PCR of PCSK9 mRNA in primary hepatocytes", "format": "cell-based, human", "settings": "donor 4178, 3 μM, relative to GUSB"}, "[5]": {"system": "ACTA2 mRNA", "assay": "qRT-PCR of fibrosis related genes in stellate cells, ACTA2", "format": "cell-based, human", "settings": "stellate cells P7, 0.5 μM, 18 hours", "method": "(§1) Stellate cells P7 were treated with 0.5 μM of each of the indicated compounds for 18 hours. Cells were processed for RNA extraction and qRT-PCR as previously described. The assay was repeated in triplicate."}, "[6]": {"system": "TGFB1 mRNA", "assay": "qRT-PCR of fibrosis related genes in stellate cells, TGFB1", "format": "cell-based, human", "settings": "stellate cells P7, 0.5 μM, 18 hours", "method": "as §1"}, "[7]": {"system": "PNPLA3 mRNA", "assay": "qRT-PCR of PNPLA3 mRNA in human primary hepatic stellate cells", "format": "cell-based", "settings": "for Primary Stellate cells PNPLA3 (fold change in mRNA expression): 3 μM, relative to GAPDH; for Relative PNPLA3 mRNA levels RQ: hepatic stellate cells"}, "[8]": {"system": "COL1A1 mRNA", "assay": "qRT-PCR of COL1A1 mRNA in human primary hepatic stellate cells", "format": "cell-based", "settings": "for Primary Stellate cells COL1A1 (fold change in mRNA expression): 3 μM, relative to GAPDH; for Relative COL1A1 mRNA levels RQ: hepatic stellate cells"}, "[9]": {"system": "COL1A2 mRNA", "assay": "qRT-PCR of fibrosis related genes in stellate cells, COL1A2", "format": "cell-based, human", "settings": "stellate cells P7, 0.5 μM, 18 hours", "method": "as §1"}, "[10]": {"system": "TIM2 mRNA", "assay": "qRT-PCR of fibrosis related genes in stellate cells, TIM2", "format": "cell-based, human", "settings": "stellate cells P7, 0.5 μM, 18 hours", "method": "as §1"}, "[11]": {"system": "MMP2 mRNA", "assay": "qRT-PCR of fibrosis related genes in stellate cells, MMP2", "format": "cell-based, human", "settings": "stellate cells P7, 0.5 μM, 18 hours", "method": "as §1"}, "[12]": {"system": "PNPLA3 mRNA", "assay": "qRT-PCR of PNPLA3 mRNA in compound-treated mouse hepatocytes", "format": "cell-based", "settings": "mouse hepatocytes, 1 μM, normalized to ACTB", "protocol": "Analysis of the fold changes in expression as measured by qRT-PCR were performed using the technique below. The control was DMSO, and the treatment was the selected compound (CPD). The internal control was GAPDH or B-Actin (or otherwise indicated), and the gene of interest is the target. First, the averages of the 4 conditions were calculated for normalization: DMSO:GAPDH, DMSO:Target, CPD: GAPDH, and CPD:Target. Next, the ΔCT of both control and treatment were calculated to normalize to internal control (GAPDH) using (DMSO:Target)−(DMSO:GAPDH)=ΔCT control and (CPD:Target)−(CPD: GAPDH)=ΔCT experimental. Then, the ΔΔCT was calculated by ΔCT experimental−ΔCT control. The Expression Fold Change (or Relative Quantification, abbreviated as RQ) was calculated by 2−(ΔΔCT) (2-fold expression change was shown by RNA-Seq results provided herein).\nCompounds were tested at concentrations ranging from 0.01 μM to 50 μM. […] PNPLA3 levels were normalized to the level of a house keeping gene ACTB."}, "[13]": {"system": "phosphorylated AKT (pAKT/AKT)", "assay": "Western blot of phosphorylated AKT in human hepatocytes", "format": "cell-based", "settings": "3 μM", "method": "(§2) Levels of phosphorylated S6, AKT, and NDRG1 proteins were determined as compared to total S6, AKT, and NDRG1 protein. PNPLA3 mRNA expression was quantified and normalized to housekeeping gene GUSB."}, "[14]": {"system": "phosphorylated S6 (pS6/S6)", "assay": "Western blot of phosphorylated S6 in human hepatocytes", "format": "cell-based", "settings": "3 μM", "method": "as §2"}, "[15]": {"system": "phosphorylated NDRG1 (pNDRG1/NDRG1)", "assay": "Western blot of phosphorylated NDRG1 in human hepatocytes", "format": "cell-based", "settings": "3 μM, mTORC2 pathway, time point not stated", "method": "as §2"}, "[16]": {"system": "phosphorylated 4EBP1 (p4EBP1c (37/46)/4EBP1c)", "assay": "Western blot of phosphorylated 4EBP1 in human hepatocytes", "format": "cell-based", "settings": "3 μM, mTORC1 pathway, time point not stated"}, "[17]": {"system": "mouse hepatocytes", "assay": "Cytotoxicity in mouse hepatocytes", "format": "cell-based", "settings": "10 μM"}, "[18]": {"settings": "stellate cells P7, 0.5 μM, 18 hours"}, "[19]": {"settings": "35 min to 20 hrs, relative to DMSO control"}},
  "data": [
    {"molecule": "Activin", "values": [
      {"measurement": "PNPLA3 expression in the RNA-seq study (in words)", "setting": "[1]", "value": "best upregulators of PNPLA3 and PNPLA5"},
      {"measurement": "PNPLA5 expression in the RNA-seq study (in words)", "setting": "[2]", "value": "best upregulators of PNPLA3 and PNPLA5"}
    ]},
    {"molecule": "CC(C)n1nc(-c2ccc3oc(N)nc3c2)c2c(N)ncnc21", "note": "[INK-128]", "values": [
      {"measurement": "Primary Hepatocytes 4178 PNPLA3 (fold change in mRNA expression)", "setting": "[3]", "value": 1.50},
      {"measurement": "Primary Hepatocytes 4282 PNPLA3 (fold change in mRNA expression)", "setting": "[3]", "value": 1.63},
      {"measurement": "Primary Hepatocytes 4178 PCSK9 (fold change in mRNA expression)", "setting": "[4]", "value": 0.98},
      {"measurement": "Relative mRNA ACTA2", "setting": "[5]", "value": "0.61 ± 0.02"},
      {"measurement": "Relative mRNA TGFB1", "setting": "[6]", "value": "1.20 ± 0.02"},
      {"measurement": "Primary Stellate cells PNPLA3 (fold change in mRNA expression)", "setting": "[7]", "value": 0.56},
      {"measurement": "Relative PNPLA3 mRNA levels RQ", "setting": "[7]; 0.01 μM", "value": 0.40},
      {"measurement": "Relative PNPLA3 mRNA levels RQ", "setting": "[7]; 0.1 μM", "value": 0.28},
      {"measurement": "Relative PNPLA3 mRNA levels RQ", "setting": "[7]; 1 μM", "value": 0.58},
      {"measurement": "Relative PNPLA3 mRNA levels RQ", "setting": "[7]; 10 μM", "value": 0.58},
      {"measurement": "Relative mRNA PNPLA3", "setting": "[7]; [18]", "value": "0.28 ± 0.01"},
      {"measurement": "Primary Stellate cells COL1A1 (fold change in mRNA expression)", "setting": "[8]", "value": 0.47},
      {"measurement": "Relative COL1A1 mRNA levels RQ", "setting": "[8]; 0.01 μM", "value": 1.05},
      {"measurement": "Relative COL1A1 mRNA levels RQ", "setting": "[8]; 0.1 μM", "value": 0.27},
      {"measurement": "Relative COL1A1 mRNA levels RQ", "setting": "[8]; 1 μM", "value": 0.32},
      {"measurement": "Relative COL1A1 mRNA levels RQ", "setting": "[8]; 10 μM", "value": 0.21},
      {"measurement": "Relative mRNA COL1A1", "setting": "[8]; [18]", "value": "0.23 ± 0.01"},
      {"measurement": "Relative mRNA COL1A2", "setting": "[9]", "value": "0.30 ± 0.01"},
      {"measurement": "Relative mRNA TIMP2", "setting": "[10]", "value": "1.26 ± 0.01"},
      {"measurement": "Relative mRNA MMP2", "setting": "[11]", "value": "1.53 ± 0.05"},
      {"measurement": "Relative PNPLA3 mRNA levels", "setting": "[12]", "value": "0.30 ± 0.14"}
    ]},
    {"molecule": "CS(=O)(=O)N1CCc2c(-c3cnc(N)nc3)nc(N3CCOCC3)nc21", "note": "[CH5132799]", "values": [
      {"measurement": "PNPLA3 mRNA expression level over time (in words)", "setting": "[3]; 3 μM, normalized to GUSB", "value": "decreased levels of PNPLA3 expression after 3 hours"},
      {"measurement": "PNPLA3 mRNA expression level over time (in words)", "setting": "[3]; 3 μM, normalized to GUSB, listed as CH51332799", "value": "down regulated PNPLA3 gene expression"},
      {"measurement": "Primary Hepatocytes 4178 PNPLA3 (fold change in mRNA expression)", "setting": "[3]", "value": 0.49},
      {"measurement": "Primary Hepatocytes 4282 PNPLA3 (fold change in mRNA expression)", "setting": "[3]", "value": 0.60},
      {"measurement": "Relative PINPLA3 mRNA", "setting": "[3]; 0.1 uM", "value": 0.940},
      {"measurement": "Relative PINPLA3 mRNA", "setting": "[3]; 0.3 uM", "value": 0.870},
      {"measurement": "Relative PINPLA3 mRNA", "setting": "[3]; 1 uM", "value": 0.743},
      {"measurement": "Relative PINPLA3 mRNA", "setting": "[3]; 3 uM", "value": 0.491},
      {"measurement": "PNPLA3 mRNA", "setting": "[3]; human hepatocytes, 3 μM, normalized to GUSB, time point not stated", "value": 0.511},
      {"measurement": "Primary Hepatocytes 4178 PCSK9 (fold change in mRNA expression)", "setting": "[4]", "value": 0.51},
      {"measurement": "phosphorylated AKT (pAKT/AKT) over time (in words)", "setting": "[13]; [19]", "value": "increased at 3 hours and decreased to pre-treatment levels at 4.5 hours"},
      {"measurement": "pAKT (473)/AKT", "setting": "[13]; human hepatocytes, mTORC2 pathway, time point not stated", "value": 0.22},
      {"measurement": "phosphorylated S6 (pS6/S6) over time (in words)", "setting": "[14]; [19]", "value": "decreased at 1 hour"},
      {"measurement": "pS6/S6", "setting": "[14]; human hepatocytes, mTORC1 pathway, time point not stated", "value": 0.06},
      {"measurement": "p-NDRG1/NDRG1", "setting": "[15]", "value": 0.47},
      {"measurement": "Primary Stellate cells PNPLA3 (fold change in mRNA expression)", "setting": "[7]", "value": 0.56},
      {"measurement": "Primary Stellate cells COL1A1 (fold change in mRNA expression)", "setting": "[8]", "value": 0.81},
      {"measurement": "p4EBP1c (37/46)#/4EBP1c", "setting": "[16]", "value": 0.40}
    ]},
    {"molecule": "C1=C/COCc2cc(ccc2OCCN2CCCC2)Nc2nccc(n2)-c2cccc(c2)COC/1", "note": "[Pacritinib]", "values": [
      {"measurement": "cytotoxicity / tolerability", "setting": "[17]", "value": "slight cytotoxicity"}
    ]},
    {"molecule": "B1", "values": [
      {"measurement": "PNPLA3 expression in the RNA-seq study (in words)", "setting": "[1]", "value": "best upregulators of PNPLA3 and PNPLA5"},
      {"measurement": "PNPLA5 expression in the RNA-seq study (in words)", "setting": "[2]", "value": "best upregulators of PNPLA3 and PNPLA5"}
    ]}
  ]
}
